Results from patent US20210299156A1 (priority 2020, published 2021).
Where two headings read alike, the source gives them in different places.

Assays:
SARS-CoV-2 [1] = conditions: VERO E6 cells
SARS-CoV-2 [2] = type: in vivo, K18-hACE2 mice; conditions: 12 mg/kg per day intraperitoneal osmotic pump; 7 days after virus challenge
SARS-CoV-2 [3] = type: cell-based; conditions: EPINASAL tissue pretreated with 2.5, 25, 250 μM; MOI 0.1
SARS-CoV-2 [4] = system: SARS-CoV-2; set-up: species or system K18-hACE2 mice; conditions: mouse, in vivo
[5] = biological target: plasma membrane nucleolin (Homo sapiens, UniProt P19338); set-up: key: 1: Indicates a good plasma membrane nucleolin-binding GRO.; 2: Indicates a nucleolin control (non-plasma membrane nucleolin binding); conditions: cited from earlier work
SARS-CoV-2 [6] = type: cell-based; conditions: for EC50: MOI 0.1
SARS-CoV-2 [7] = type: cell-based; conditions: MOI 0.1
SARS-CoV-2 [8] = type: cell-based; conditions: EPIAIRWAY tissue pretreated with 2.5, 25, 250 μM; MOI 0.1
[9] = PEP: drug 4 hours after virus challenge
[10] = PrEP: drug 4 hours before virus challenge

Chain of plasma membrane nucleolin (P19338 whole entry): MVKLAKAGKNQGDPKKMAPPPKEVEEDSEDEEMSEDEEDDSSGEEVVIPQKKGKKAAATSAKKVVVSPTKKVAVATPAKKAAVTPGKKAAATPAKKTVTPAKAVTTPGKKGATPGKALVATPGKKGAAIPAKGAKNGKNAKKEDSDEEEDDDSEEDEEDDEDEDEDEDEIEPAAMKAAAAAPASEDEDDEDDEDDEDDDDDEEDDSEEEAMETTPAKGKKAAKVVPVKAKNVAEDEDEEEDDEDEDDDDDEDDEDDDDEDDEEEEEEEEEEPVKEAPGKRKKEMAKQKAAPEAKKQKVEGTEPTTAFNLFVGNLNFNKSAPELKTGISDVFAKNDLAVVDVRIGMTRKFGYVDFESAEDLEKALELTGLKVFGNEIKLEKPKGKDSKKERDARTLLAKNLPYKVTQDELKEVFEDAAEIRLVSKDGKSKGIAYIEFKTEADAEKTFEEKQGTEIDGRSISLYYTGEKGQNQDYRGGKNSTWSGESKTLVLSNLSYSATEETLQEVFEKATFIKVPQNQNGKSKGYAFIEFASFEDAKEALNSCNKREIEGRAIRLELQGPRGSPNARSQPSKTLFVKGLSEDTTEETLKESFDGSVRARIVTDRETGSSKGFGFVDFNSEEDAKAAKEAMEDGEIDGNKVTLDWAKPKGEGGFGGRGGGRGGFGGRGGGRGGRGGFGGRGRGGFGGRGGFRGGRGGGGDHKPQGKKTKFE

AS1411: GRO nucleolin-binding DNA aptamer, SEQ ID NO:10, ggtggtggtg gttgtggtgg tggtgg
concentration at which inhibition of SARS-CoV-2 virus-induced syncytium formation begins (SARS-CoV-2 [1]; MOI 0.01, 72 hours): ≥ 0.625 µM | dose at which cytopathic effects of SARS-CoV-2 are markedly reduced (SARS-CoV-2 [1]; MOI 0.01, 72 hours): ≥ 0.625 µM | cytotoxicity (SARS-CoV-2 [1]; from 0.625 μM): without cytotoxicity | survival rate (SARS-CoV-2 [2]): 100% | reduction in viral titer (SARS-CoV-2 [3]): ≤ 3.5 logs fold | inhibiting the virus (TCID50/ml) (SARS-CoV-2 [4]): effective for inhibiting the virus in the nasal passage and kidneys of the mice, although not as effectively as in the lungs | inhibiting the virus in the brain (TCID50/ml) (SARS-CoV-2 [4]): not effective for inhibiting the virus in the brain | inhibiting the virus in the lungs (TCID50/ml) (SARS-CoV-2 [4]): effective for inhibiting the virus in the lungs | plasma membrane nucleolin binding (footnote designation) [5]: GRO26B^1 | protective effect compared to the vehicle group (SARS-CoV-2 [6]; 2.5 μM and 20 μM, EPIAIRWAY tissue, FIG. 29): reduction of virus | EC50 (SARS-CoV-2 [6]; 72 Hours Post-Infection, EPIAIRWAY tissue): 942 nM | EC50 (SARS-CoV-2 [6]; 96 Hours Post-Infection, EPIAIRWAY tissue): 1410 nM | EC50 (SARS-CoV-2 [6]; 120 Hours Post-Infection, EPIAIRWAY tissue): 650 nM | interference between AS1411 and remdesivir in combination (SARS-CoV-2 [6]; EPIAIRWAY tissue TCID50/ml, FIG. 27): do not interfere with each other | interference between AS1411 and dexamethasone in combination (SARS-CoV-2 [6]; EPIAIRWAY tissue TCID50/ml, FIG. 28): do not interfere with each other | EC50 (SARS-CoV-2 [7]; [9]): 1500 nM | EC90 (SARS-CoV-2 [7]; [9]): 3200 nM | EC50 (SARS-CoV-2 [7]; [10]): 986 nM | EC90 (SARS-CoV-2 [7]; [10]): 2160 nM | toxicity in EPIAIRWAY model (EPIAIRWAY™ tissue): not toxic | reduction in viral titer (SARS-CoV-2 [8]): ≤ 5 logs fold
